{"source": "patent US20140296154A1", "about": "“METHOD OF PREVENTING DEVELOPMENT OF PSORIATIC LESIONS” (YALE UNIVERSITY, priority 2011, published 2014)", "key": {"[1]": {"tested_on": "A20", "assay": "Western blot of A20 in skin of WT and PSX mice with and without TPA", "type": "in vivo, mouse", "conditions": "topical TPA; wild-type and old (24-week) PSX mice compared to young (4-week) PSX mice"}, "[2]": {"assay": "Topical delivery of FITC-labeled NBD peptide into skin", "type": "in vivo", "from_the_text": "To assess the ability to deliver the NBD peptide of SEQ ID NO: 122 topically, the peptide was conjugated to the fluorophore FITC, and the labeled peptide prepared in two different formulations. The first formulation consisted of the labeled peptide dissolved in vaseline ointment, and the second formulation consisted of the labeled peptide dissolved in DMSO."}, "[3]": {"tested_on": "PSX mice (K14-VEGF transgenic psoriasis model)", "assay": "Ear thickness / psoriatic lesion development in PSX (homozygous K14-VEGF transgenic) mice", "type": "in vivo, mouse", "conditions": "intraperitoneal 50 micrograms twice weekly; for mean ear thickness / psoriatic skin lesions: older PSX mice with fully developed psoriatic lesions, 8 weeks, vs untreated control", "from_the_text": "This K14-VEGF mouse was backcrossed to homozygosity for the transgene(s), generating a mouse model that develops psoriasiform lesions on the ears spontaneously and after trauma. These are referred to as PSX mice. […] FIGS. 3A-D illustrate the PSX transgenic mouse model used in screening psoriasis treatments in accordance with the present invention. […] FIGS. 3C and 3D show pathology of the mouse model.\nThe NF-κB inhibitor used for the treatments in this example was the fusion protein drqikiwfqnrrmkwkkTALDWSWLQTE (SEQ ID NO: 122), where lower case letters indicate D-amino acid residues and upper case letters indicate L-amino acid residues. This inhibitor includes a translocation domain of Antennapedia and an Nemo Binding Domain (NBD) peptide.\nThe peptide was formulated and administered as an intraperitoneal injection of 50 micrograms to either PSX mice after they had fully developed psoriatic skin lesions (FIG. 7) or prior to the development of psoriatic plaques when the ears were still uninvolved (FIG. 8). Assessment of the development of psoriatic lesions was measured by the thickness of ear tissue."}}, "note": "Square brackets hold non-standard residues; d marks the D form. Ends that are not written are not given here.", "data": [{"compound": "CCCCCCCCCCCCCC(=O)O[C@@H]1[C@@H](C)[C@@]2(O)[C@@H](C=C(CO)C[C@]3(O)C(=O)C(C)=C[C@@H]23)[C@@H]2C(C)(C)[C@]12OC(C)=O", "note": "[TPA, 12-O-tetradecanoyl phorbol-13-acetate]", "values": [{"measurement": "A20 protein induction", "setting": "[1]", "value": "robust induction"}]}, {"compound": "FITC-conjugated NBD peptide of SEQ ID NO: 122: NBD peptide of SEQ ID NO: 122 conjugated to the fluorophore FITC, in vaseline ointment or DMSO ([dD][dR][dQ][dI][dK][dI][dW][dF][dQ][dN][dR][dR][dM][dK][dW][dK][dK]TALDWSWLQTE; also: FITC conjugate, site not given here)", "values": [{"measurement": "peptide localisation in skin after topical administration", "setting": "[2]; peptide in DMSO", "value": "uptake is prevalent among the cells in both the epidermis and dermis"}, {"measurement": "peptide localisation in skin after topical administration", "setting": "[2]; peptide in vaseline ointment", "value": "limited to the stratum corneum"}]}, {"compound": "drqikiwfqnrrmkwkkTALDWSWLQTE ([dD][dR][dQ][dI][dK][dI][dW][dF][dQ][dN][dR][dR][dM][dK][dW][dK][dK]TALDWSWLQTE) [SEQ ID NO: 122]", "values": [{"measurement": "mean ear thickness / psoriatic skin lesions", "setting": "[3]; listed as NF-κB inhibitor", "value": "no change"}, {"measurement": "mean ear thickness / psoriatic skin lesions", "setting": "[3]; listed as peptide", "value": "no effect"}, {"measurement": "thickening of the ear and development of phenotypic lesions of psoriasis", "setting": "[3]; young PSX mice treated prior to development of psoriatic plaques, vs vehicle (DMSO)", "value": "prevented the thickening of the ear"}]}]}
